Measurements: patent publication US20230295115A1, “SUBSTITUTED ISOQUINOLINYLMETHYL AMIDES, ANALOGUES THEREOF, AND METHODS USING SAME” (priority 2020, published 2023)

Tested on: HBV rcDNA
Assay: HepDE19 assay with bDNA quantitation of HBV rcDNA
Assay type: cell-based, hepatitis B virus (HBV)
Conditions: HepDE19 cells, 7 day incubation, rcDNA measured by Quantigene 2.0 bDNA assay, top concentration 25 μM; read-out: DE-19bDNA EC50
In short: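 HepDE19 cells were switched to tetracycline-free medium and exposed to compound (0.5% DMSO final) for 7 days at 37° C. rcDNA was then quantified by bDNA with an HBV-specific probe set. In parallel, viability was read as ATP content (CellTiter-Glo) after 4 days on replicate plates.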

SMILES	EC50 [µM]
CC(c1c[nH]c(=O)c2cc(F)c(F)cc12)N(C)C(=O)C1Cc2cc(F)ccc2N1 (centres unmarked) [Compound 62, N-(1-(6,7-Difluoro-1-oxo-1,2-dihydroisoquinolin-4-yl)ethyl)-5-fluoro-N-methylindoline-2-carboxamide]	0.19
CC(c1c[nH]c(=O)c2cc(F)c(F)cc12)N(C)C(=O)[C@@H]1Cc2ccccc2CN1 (single isomer, unassigned) [Compound 20]	9.2
COc1ncc(C(C)N(C)C(=O)[C@@H]2Cc3ccccc3N2)c2cc(F)c(F)cc12 (single isomer, unassigned) [Compound 181]	0.29
CC(c1cn(C)c(=O)c2cc(F)c(F)cc12)N(C)C(=O)[C@@H]1Cc2ccccc2N1 (stereo partly drawn) [Compound 184, (2S)-N-(1-(6,7-difluoro-2-methyl-1-oxo-1,2-dihydroisoquinolin-4-yl)ethyl)-N-methylindoline-2-carboxamide]	4.2
CC(c1c[nH]c(=O)c2cc(F)c(F)cc12)N(C)C(=O)c1c[nH]c2ccccc12 (single isomer, unassigned) [Compound 53, N-(1-(6,7-Difluoro-1-oxo-1,2-dihydroisoquinolin-4-yl)ethyl)-N-methyl-1H-indole-3-carboxamide]	≥ 25
